From ChEMBL document CHEMBL5532657, “Serendipitous discovery of Class I HDAC inhibitors from rational design of molecular glue degraders targeting HDAC” (Eur J Med Chem, 2024) come the findings set out here.

pIC50, pKd: −log10 of the molar value. Active and inactive are the calls of the source. The calls are words filed in the database; no cut-off is given here.

One experiment concerns K562. In words: Antiproliferative activity against human K562 cells assessed as cell growth inhibition at 5 uM incubated for 48 hrs by CCK-8 assay. The experiment is classed as functional, cell-based.
Experiment [1] concerns RS4-11. Nature of the experiment: Induction of cell cycle arrest in human RS4-11 cells assessed as S phase arrest after 48 hrs by PI staining based flow cytometry analysis. The experiment is classed as functional. Particulars: dose 1-10 µM. (In general: Flow cytometry measures light scatter and fluorescence of single cells or particles in a stream.)
In experiment [2] the target is DNA-binding protein Ikaros (Homo sapiens) (UniProt Q13422). Nature of the experiment: Induction of IKZF1 degradation in human RS4-11 cells at 1 to 10 uM by Western blotting analysis. The experiment is classed as cell-based. The settings on record: dose 1-10 µM. Background: In western blotting, separated proteins are transferred to a membrane and probed.
Chain of DNA-binding protein Ikaros (Homo sapiens) (Q13422 whole entry): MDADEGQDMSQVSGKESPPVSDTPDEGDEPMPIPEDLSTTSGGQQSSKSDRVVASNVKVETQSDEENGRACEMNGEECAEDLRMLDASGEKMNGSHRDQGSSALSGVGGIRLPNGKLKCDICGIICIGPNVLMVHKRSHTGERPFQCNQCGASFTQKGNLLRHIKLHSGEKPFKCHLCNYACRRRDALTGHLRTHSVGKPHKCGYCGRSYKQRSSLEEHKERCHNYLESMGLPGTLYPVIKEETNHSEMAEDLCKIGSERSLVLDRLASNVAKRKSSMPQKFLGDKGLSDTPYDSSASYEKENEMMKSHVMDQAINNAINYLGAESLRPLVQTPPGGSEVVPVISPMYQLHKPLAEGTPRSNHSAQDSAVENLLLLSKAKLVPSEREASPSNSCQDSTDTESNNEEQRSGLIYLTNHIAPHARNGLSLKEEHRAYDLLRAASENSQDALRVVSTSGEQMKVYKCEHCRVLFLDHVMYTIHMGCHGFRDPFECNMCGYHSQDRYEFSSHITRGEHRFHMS
The next experiment has as its target Histone deacetylase 2 (Homo sapiens, UniProt Q92769). In words: Inhibition of HDAC2 in human HeLa cells nuclear extract using BocLys(acetyl)-AMC as substrate incubated for 1 hr by fluorescence plate reader analysis. The experiment is classed as subcellular, Nucleus.
The subject of experiment [3] is RPMI-8226. Nature of the experiment: Antiproliferative activity against human RPMI-8226 cells assessed as cell growth inhibition at 5 uM incubated for 48 hrs by CCK-8 assay. It is filed as functional, cell-based.
Experiment [4] deals with RPMI-8226. Nature of the experiment: Antiproliferative activity against human RPMI-8226 cells assessed as cell growth inhibition incubated for 48 hrs by CCK-8 assay. The experiment is classed as functional, cell-based. Particulars: RPMI-8226, 48 h.
Another experiment addresses Histone deacetylase 9 (Homo sapiens, UniProt Q9UKV0). In words: Inhibition of HDAC9 in human HeLa cells nuclear extract using BocLys(acetyl)-AMC as substrate incubated for 1 hr by fluorescence plate reader analysis. It is filed as subcellular, Nucleus.
For another experiment, the system named is A549. Nature of the experiment: Antiproliferative activity against human A549 cells assessed as cell growth inhibition at 5 uM incubated for 48 hrs by CCK-8 assay. The experiment is classed as functional, cell-based.
The target in experiment [5] is T1, Protein deacetylase HDAC6 (Homo sapiens) (UniProt Q9UBN7).
T1 sequence (whole entry): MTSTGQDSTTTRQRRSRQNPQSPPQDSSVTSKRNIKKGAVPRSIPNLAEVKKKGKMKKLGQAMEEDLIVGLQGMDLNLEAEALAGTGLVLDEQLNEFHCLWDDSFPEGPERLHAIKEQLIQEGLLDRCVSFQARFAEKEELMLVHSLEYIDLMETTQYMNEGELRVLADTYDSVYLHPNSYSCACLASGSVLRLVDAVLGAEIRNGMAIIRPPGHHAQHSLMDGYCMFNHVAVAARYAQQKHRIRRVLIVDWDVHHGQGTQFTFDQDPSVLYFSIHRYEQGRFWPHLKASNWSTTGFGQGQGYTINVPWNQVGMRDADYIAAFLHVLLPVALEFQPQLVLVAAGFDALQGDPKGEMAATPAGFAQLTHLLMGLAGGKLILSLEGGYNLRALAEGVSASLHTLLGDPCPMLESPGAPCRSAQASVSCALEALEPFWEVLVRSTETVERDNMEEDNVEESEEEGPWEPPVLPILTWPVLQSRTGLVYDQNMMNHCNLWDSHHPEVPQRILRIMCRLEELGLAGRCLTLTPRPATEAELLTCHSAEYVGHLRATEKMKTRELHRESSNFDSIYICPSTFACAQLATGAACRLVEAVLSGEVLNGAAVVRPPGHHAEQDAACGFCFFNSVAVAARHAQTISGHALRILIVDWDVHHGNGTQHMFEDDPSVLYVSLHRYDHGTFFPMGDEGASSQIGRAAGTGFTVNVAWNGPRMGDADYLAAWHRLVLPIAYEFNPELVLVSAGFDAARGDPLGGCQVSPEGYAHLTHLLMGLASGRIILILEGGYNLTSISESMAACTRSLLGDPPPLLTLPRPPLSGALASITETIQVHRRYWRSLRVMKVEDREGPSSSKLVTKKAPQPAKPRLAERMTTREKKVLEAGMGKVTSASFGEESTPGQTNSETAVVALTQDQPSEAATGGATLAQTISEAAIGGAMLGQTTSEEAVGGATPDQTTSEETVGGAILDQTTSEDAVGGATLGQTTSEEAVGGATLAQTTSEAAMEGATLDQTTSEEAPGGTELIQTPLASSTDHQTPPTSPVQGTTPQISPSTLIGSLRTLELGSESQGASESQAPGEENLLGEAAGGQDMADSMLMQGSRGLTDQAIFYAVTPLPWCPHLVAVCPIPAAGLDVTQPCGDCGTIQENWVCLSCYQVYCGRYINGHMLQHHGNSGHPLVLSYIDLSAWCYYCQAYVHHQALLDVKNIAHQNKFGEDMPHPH
Nature of the experiment: Inhibition of HDAC6 in human RS4-11 cells assessed as effect on alpha-tubulin acetylation by Western blot assay. The experiment is classed as cell-based.

The next experiment relates to U-266. In words: Antiproliferative activity against human U-266 cells assessed as cell growth inhibition at 5 uM incubated for 48 hrs by CCK-8 assay. The experiment is classed as functional, cell-based. In general terms: Formazan colour is commonly taken as a measure of viable cells.
For experiment [6], the target named is Histone deacetylase (Homo sapiens) (UniProt Q13547+O15379+Q9UBN7+Q92769+Q9UQL6+Q8WUI4+Q9BY41+Q96DB2+P56524+Q9UKV0+Q969S8). Nature of the experiment: Inhibition of HDAC in human RS4-11 cells assessed as upregulation of histone H3 acetylation by Western blot assay. It is filed as cell-based.
Experiment [7] concerns RS4-11. Nature of the experiment: Antiproliferative activity against human RS4-11 cells assessed as cell growth inhibition incubated for 48 hrs by CCK-8 assay. The experiment is classed as functional, cell-based. Particulars: RS4-11, 48 h.
Experiment [8] concerns RS4-11. Nature of the experiment: Induction of apoptosis in human RS4-11 cells assessed as upregulation of p21 at 1 to 10 uM. The experiment is classed as functional, cell-based. Particulars: dose 1-10 µM.
The target in experiment [9] is Zinc finger protein Aiolos (Homo sapiens) (UniProt Q9UKT9). Nature of the experiment: Induction of IKZF3 degradation in human RS4-11 cells at 1 to 10 uM by Western blotting analysis. It is filed as cell-based. Particulars: dose 1-10 µM.
Chain of Zinc finger protein Aiolos (Homo sapiens) (Q9UKT9 whole entry): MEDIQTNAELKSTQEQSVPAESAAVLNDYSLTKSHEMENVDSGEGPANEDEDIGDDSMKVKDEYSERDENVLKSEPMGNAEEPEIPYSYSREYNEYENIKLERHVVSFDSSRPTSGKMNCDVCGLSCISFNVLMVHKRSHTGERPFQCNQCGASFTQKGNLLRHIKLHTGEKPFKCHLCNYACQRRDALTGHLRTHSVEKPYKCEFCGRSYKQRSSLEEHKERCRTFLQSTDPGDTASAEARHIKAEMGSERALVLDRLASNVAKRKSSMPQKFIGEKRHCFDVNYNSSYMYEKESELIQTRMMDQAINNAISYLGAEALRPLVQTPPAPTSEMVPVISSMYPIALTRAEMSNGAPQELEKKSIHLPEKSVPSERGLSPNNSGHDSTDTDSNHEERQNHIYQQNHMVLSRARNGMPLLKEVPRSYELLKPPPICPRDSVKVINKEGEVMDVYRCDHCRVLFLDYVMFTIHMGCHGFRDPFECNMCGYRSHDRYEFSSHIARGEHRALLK
Another experiment deals with HeLa. Nature of the experiment: Antiproliferative activity against human HeLa cells assessed as cell growth inhibition at 5 uM incubated for 48 hrs by CCK-8 assay. The experiment is classed as functional, cell-based.
In experiment [10] the target is T2, Histone deacetylase 1 (Homo sapiens, UniProt Q13547). In words: Binding affinity to HDAC1 (unknown origin).
T2 sequence (Q13547 whole entry): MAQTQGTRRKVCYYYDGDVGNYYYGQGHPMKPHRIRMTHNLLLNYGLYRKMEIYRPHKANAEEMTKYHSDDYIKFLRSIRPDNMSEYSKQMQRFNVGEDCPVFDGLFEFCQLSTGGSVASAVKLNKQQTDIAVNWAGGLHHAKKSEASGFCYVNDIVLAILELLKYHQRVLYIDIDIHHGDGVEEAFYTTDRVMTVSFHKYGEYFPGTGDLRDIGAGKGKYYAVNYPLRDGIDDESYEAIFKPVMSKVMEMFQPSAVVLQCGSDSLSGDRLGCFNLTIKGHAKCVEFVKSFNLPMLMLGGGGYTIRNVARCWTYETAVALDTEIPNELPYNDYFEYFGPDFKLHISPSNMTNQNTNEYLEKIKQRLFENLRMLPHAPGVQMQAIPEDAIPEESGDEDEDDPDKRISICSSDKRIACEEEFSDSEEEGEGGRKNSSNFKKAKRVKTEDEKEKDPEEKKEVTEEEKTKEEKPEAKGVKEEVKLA
Experiment [11] has as its target T2, Histone deacetylase 1. In words: Inhibition of HDAC1 (unknown origin) using BocLys(acetyl)-AMC as substrate incubated for 1 hr by fluorescence plate reader analysis.
The test system of the next experiment is HCT-116. Nature of the experiment: Antiproliferative activity against human HCT-116 cells assessed as cell growth inhibition at 5 uM incubated for 48 hrs by CCK-8 assay. The experiment is classed as functional, cell-based.
A further experiment addresses T3, Histone deacetylase 11 (Homo sapiens, UniProt Q96DB2).
T3 sequence (Q96DB2 whole entry): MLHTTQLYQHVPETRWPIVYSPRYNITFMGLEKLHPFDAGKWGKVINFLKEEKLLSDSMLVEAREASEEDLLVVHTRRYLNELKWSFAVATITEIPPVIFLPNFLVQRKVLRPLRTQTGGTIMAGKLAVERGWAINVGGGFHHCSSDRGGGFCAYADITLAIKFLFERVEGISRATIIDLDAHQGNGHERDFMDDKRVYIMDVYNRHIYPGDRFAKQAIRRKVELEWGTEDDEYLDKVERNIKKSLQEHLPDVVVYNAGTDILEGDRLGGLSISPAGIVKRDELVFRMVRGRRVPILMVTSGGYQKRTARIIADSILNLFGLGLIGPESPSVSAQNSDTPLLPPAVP
In words: Inhibition of HDAC11 in human HeLa cells nuclear extract using BocLys(acetyl)-AMC as substrate incubated for 1 hr by fluorescence plate reader analysis. It is filed as subcellular, Nucleus.

For experiment [12], the target named is T2, Histone deacetylase 1. In words: Induction of HDAC1 degradation in human RS4-11 cells at 0.5 to 10 uM incubated for 12 hrs by Western blotting analysis. The experiment is classed as cell-based. Particulars: dose 0.5-10 µM.

What is called pIC50 is the negative decadic logarithm of the IC50, by convention in mol/L. The pKd is −log10 of the Kd, conventionally taken in molar units.

Chain of Histone deacetylase 9 (Q9UKV0 whole entry): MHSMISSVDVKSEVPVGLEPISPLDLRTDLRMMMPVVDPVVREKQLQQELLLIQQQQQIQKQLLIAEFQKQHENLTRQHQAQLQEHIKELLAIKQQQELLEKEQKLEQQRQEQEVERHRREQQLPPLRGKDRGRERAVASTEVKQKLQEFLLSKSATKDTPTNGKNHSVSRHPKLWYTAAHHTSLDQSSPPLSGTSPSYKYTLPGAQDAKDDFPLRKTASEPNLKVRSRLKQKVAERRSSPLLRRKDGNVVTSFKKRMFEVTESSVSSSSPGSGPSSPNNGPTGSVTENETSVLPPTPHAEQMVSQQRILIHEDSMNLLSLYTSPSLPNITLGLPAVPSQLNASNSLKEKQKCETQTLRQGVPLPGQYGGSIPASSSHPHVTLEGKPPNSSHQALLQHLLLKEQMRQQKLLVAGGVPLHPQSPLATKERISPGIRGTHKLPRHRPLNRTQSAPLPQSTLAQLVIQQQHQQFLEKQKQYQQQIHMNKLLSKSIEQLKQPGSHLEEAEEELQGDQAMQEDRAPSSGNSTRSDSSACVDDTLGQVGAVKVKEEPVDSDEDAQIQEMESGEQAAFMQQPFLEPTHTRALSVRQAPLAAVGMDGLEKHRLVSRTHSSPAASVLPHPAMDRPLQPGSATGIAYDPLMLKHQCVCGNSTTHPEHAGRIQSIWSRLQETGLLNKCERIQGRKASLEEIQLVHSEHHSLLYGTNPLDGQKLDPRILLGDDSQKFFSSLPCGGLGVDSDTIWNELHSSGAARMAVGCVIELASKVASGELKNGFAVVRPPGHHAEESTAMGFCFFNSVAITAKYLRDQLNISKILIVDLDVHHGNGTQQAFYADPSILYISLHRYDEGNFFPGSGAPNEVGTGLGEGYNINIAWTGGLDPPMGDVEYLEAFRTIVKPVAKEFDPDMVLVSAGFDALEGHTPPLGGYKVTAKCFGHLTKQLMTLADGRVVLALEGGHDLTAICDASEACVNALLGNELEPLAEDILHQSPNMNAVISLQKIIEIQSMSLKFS
Chain of Histone deacetylase 2 (Q92769 whole entry): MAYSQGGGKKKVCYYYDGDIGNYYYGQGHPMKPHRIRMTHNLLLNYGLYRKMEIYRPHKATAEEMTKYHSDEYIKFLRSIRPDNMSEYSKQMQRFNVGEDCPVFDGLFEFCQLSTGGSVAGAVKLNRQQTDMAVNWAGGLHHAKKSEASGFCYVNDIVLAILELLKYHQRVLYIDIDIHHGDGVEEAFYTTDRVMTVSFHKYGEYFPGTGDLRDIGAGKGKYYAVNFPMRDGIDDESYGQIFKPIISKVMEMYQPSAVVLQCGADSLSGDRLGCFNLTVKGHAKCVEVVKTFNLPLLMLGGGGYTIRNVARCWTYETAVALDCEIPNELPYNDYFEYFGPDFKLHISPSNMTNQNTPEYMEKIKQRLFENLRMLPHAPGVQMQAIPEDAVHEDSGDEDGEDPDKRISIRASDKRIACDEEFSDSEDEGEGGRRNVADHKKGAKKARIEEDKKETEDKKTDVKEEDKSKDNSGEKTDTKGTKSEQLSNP

Consider `Nc1cc(F)ccc1NC(=O)c1ccc(CNc2cccc3c2C(=O)N(C2CCC(=O)NC2=O)C3=O)cc1` (stereo not given), for which the outcome (in the experiment with K562; in experiment [2]; with RPMI-8226 [3]; in the experiment with U-266; with RS4-11 [8]; in experiment [9]) was Active. In the experiment with RS4-11 [1], the Activity entry is “Dose-Dependent Effect”. The pIC50 at Histone deacetylase 2 is 6.36; with RPMI-8226 [4] it was 5.43; on Histone deacetylase 9, under 5.70; in the experiment on RS4-11 [7], 5.68; at Histone deacetylase 1 [11], 6.34; against Histone deacetylase 11, under 5.70. The result (with A549; in experiment [5]; in the experiment with HeLa; with HCT-116; on Histone deacetylase 1 [12]) was inactive. Moreover, the inhibition result in experiment [6] was “Active”. Moreover, the pKd on Histone deacetylase 1 [10] is 4.78.

With `Nc1ccccc1NC(=O)c1ccc(CNc2cccc3c2C(=O)N(C2CCC(=O)NC2=O)C3=O)cc1` (stereo not given), the result (with K562; in experiment [2]; in the experiment on RPMI-8226 [3]; in the experiment on U-266; in the experiment with RS4-11 [8]; in experiment [9]) was Active. The Activity result in the experiment on RS4-11 [1] was “Dose-Dependent Effect”. Moreover, the pIC50 is 6.42 on Histone deacetylase 2; 5.24 with RPMI-8226 [4]; under 5.70 against Histone deacetylase 9; 5.80 with RS4-11 [7]; 6.26 on Histone deacetylase 1 [11]; under 5.70 at Histone deacetylase 11. Also, the result (in the experiment on A549; in [5]; in the experiment with HeLa; with HCT-116; at Histone deacetylase 1 [12]) was inactive. For the same molecule, in experiment [6], the inhibition entry was “Active”. In addition, on Histone deacetylase 1 [10], the pKd was 4.38.
